# Where “and” joins values, the source holds several entries; their conditions need not be identical. Identical values can stand only once. Like-named read-outs stand apart in the source and are kept apart here. Ends that are not written are not given here. Peptide text beside a SMILES is read from it.
# Legend:
# [1] = tested on: human peripheral blood mononuclear cells (MCP-1); test: MCP-1 chemokine production by ELISA; type: cell-based
# Experimental: FIG. 19. High production of anti-infective chemokine MCP-1 by human peripheral blood mononuclear cells treated with peptides, as determined by ELISA after 24 hours of stimulation.
# Venous blood (20 ml) from healthy volunteers was collected in Vacutainer® collection tubes containing sodium heparin as an anticoagulant (Becton Dickinson, Mississauga, ON) in accordance with UBC ethical approval and guidelines. Blood was diluted 1:1 with complete RPMI 1640 medium and separated by centrifugation over a Ficoll-Paque® Plus (Amersham Biosciences, Piscataway, N.J., USA) density gradient. White blood cells were isolated from the buffy coat, washed twice in RPMI 1640 complete medium, and the number of peripheral blood mononuclear cells (PBMC) was determined by Trypan blue exclusion. PBMC (5×10^5) were seeded into 12-well tissue culture dishes (Falcon; Becton Dickinson) at 0.75 to 1×10^6 cells/ml at 37° C. in 5% CO2. The above conditions were chosen to mimic conditions for circulating blood monocytes entering tissues at the site of infection via extravasation.
# Following incubation of the cells under various treatment regimens, the tissue culture supernatants were centrifuged at 1000×g for 5 min, then at 10,000×g for 2 min to obtain cell-free samples. Supernatants were aliquoted and then stored at −20° C. prior to assay for various chemokines by capture ELISA (eBioscience and BioSource International Inc., CA, USA respectively)
# [2] = tested on: Pseudomonas aeruginosa (Pa) biofilm; test: static abiotic solid surface (microtiter, crystal violet) / Bioflux biofilm inhibition screen; type: cell-based
# Experimental: FIG. 1. Identification of new anti-biofilm peptides active against P. aeruginosa using the microtiter plate screening method with crystal violet staining. […] As a control peptide 1037 was utilized [de la Fuente Nunez et al. 2011].
# Methods of assessment of anti-biofilm activity—Biofilm formation was initially analyzed using a static abiotic solid surface assay as described elsewhere (de la Fuente-Nunez et al., 2012). Dilutions (1/100) of overnight cultures were incubated in BM2 biofilm-adjusted medium [62 mM potassium phosphate buffer (pH 7), 7 mM (NH4)2SO4, 2 mM MgSO4, 10 μM FeSO4, 0.4% (wt/vol) glucose, 0.5% (wt/vol) Casamino Acids], or a nutrient medium such as Luria Broth, in polypropylene microtiter plates (Falcon, United States) in the absence (control) or presence of peptide. Peptide was added at time zero (prior to adding the diluted, overnight cultures) in varying concentrations, and the decrease in biofilm formation was recorded at 22-46 h for most bacteria. Planktonic cells were removed, biofilm cells adhering to the side of the tubes were stained with crystal violet, and absorbance at 595 nm was measured using a microtiter plate reader (Bio-Tek Instruments Inc., United States). Some peptides were screened against two Gram negative organisms, P. aeruginosa and K. pneumoniae using a Bioflux apparatus (AutoMate Scientific, Berkeley, Calif.; http://www.autom8.com/bioflux_biofilm.html), which allows for the high-throughput, real-time analysis of biofilms.
# [3] = tested on: E. coli biofilms; test: checkerboard titration biofilm synergy (MBIC, FIC); type: cell-based; conditions: for MBIC: compound alone; for Fold decrease in antibiotic concentration: in the presence of peptide 1018; for Fold decrease in antibiotic concentration / antibiotic MIC: in the presence of peptide DJK5
# Experimental: (§1) Peptides and various conventional antibiotics were analyzed by checkerboard titration into microtiter trays using CLSI methods (Wiegand, I., K. Hilpert, and R. E. W. Hancock. 2008. Nature Protocols 3:163-175), bacteria added and, after overnight incubation at 37° C., the residual biofilm assessed by the crystal violet method mentioned in the body of the grant, with an A595 of 0.2 considered as 100% biofilm inhibition. The effects of the peptide in reducing the minimal biofilm inhibitory concentration (MBIC) of the antibiotic and vice versa were assessed using the Fractional Inhibitory Concentration (FIC) method whereby ΣFTC=FICA+FICB=(CA/MICA)+(CB/MICB), where MBICA and MBICB are the MBICs of peptide A and antibiotic B alone, respectively, and CA and CB (expressed in μg/ml) are the MICs of the drugs in combination. This conventional clinical microbiology assay is interpreted as follows
# [4] = tested on: S. aureus biofilms; test: checkerboard titration biofilm synergy (MBIC, FIC); type: cell-based; conditions: for MBIC: compound alone; for Fold decrease in antibiotic concentration: in the presence of peptide 1018; for Fold decrease in antibiotic concentration / antibiotic MIC: in the presence of peptide DJK5
# Experimental: as §1
# [5] = tested on: P. aeruginosa biofilms; conditions: P. aeruginosa biofilm
# Experimental: as §1
# [6] = tested on: A. baumannii biofilm; test: checkerboard titration biofilm synergy (FIC); type: cell-based; conditions: for Fold decrease in antibiotic MIC in the presence of peptide: peptide DJK5
# Experimental: as §1
# [7] = tested on: K. pneumoniae biofilm; test: checkerboard titration biofilm synergy (FIC); type: cell-based; conditions: for Fold decrease in antibiotic MIC in the presence of peptide: peptide DJK5
# Experimental: as §1
# [8] = tested on: Salmonella biofilm; test: checkerboard titration biofilm synergy (FIC); type: cell-based; conditions: for Fold decrease in antibiotic MIC in the presence of peptide: peptide DJK5
# Experimental: as §1
# [9] = antibiotic in combination with peptide 1018
# [10] = antibiotic in combination with peptide DJK5
# [11] = in combination with peptide 1018
# [12] = in combination with peptide DJK5
compound,measurement,setting,value
VRFRIWRR (VRFRIWRR-NH2) [EH2],Notes (IDR immunomodulatory activity),[1],Weaker activity than 1018
CC[C@H](C)[C@H](NC(=O)[C@H](CC(C)C)NC(=O)[C@@H]1CCCN1C(=O)[C@H](CCCCN)NC(=O)[C@H](C)NC(=O)[C@@H](NC(=O)[C@@H](NC(=O)[C@@H](NC(=O)[C@@H](NC(=O)[C@H](CCCCN)NC(=O)[C@H](CCCCN)NC(=O)[C@H](C)NC(=O)[C@H](C)NC(=O)[C@H](CO)NC(=O)[C@@H](NC(=O)[C@H](CC(C)C)NC(=O)[C@H](CCCCN)NC(=O)[C@H](CCCCN)NC(=O)[C@@H](NC(=O)[C@H](Cc1ccccc1)NC(=O)[C@H](CO)NC(=O)[C@H](CCCCN)NC(=O)[C@H](Cc1c[nH]c2ccccc12)NC(=O)[C@@H](N)CCCCN)[C@@H](C)CC)[C@@H](C)O)C(C)C)C(C)C)[C@@H](C)O)[C@@H](C)O)C(=O)N[C@@H](CO)C(=O)N[C@@H](CO)C(N)=O [CP26] (H-KWKSFIKKLTSAAKKVVTTAKPLISS-NH2; N-terminus assumed),% Biofilm Inhibition Pa,[2]; peptide 10 μg/ml,62%
"N=C(N)NCCC[C@H](NC(=O)[C@H](CCCNC(=N)N)NC(=O)[C@H](Cc1c[nH]c2ccccc12)NC(=O)[C@H](Cc1c[nH]c2ccccc12)NC(=O)[C@H](CCCCN)NC(=O)[C@H](Cc1c[nH]c2ccccc12)NC(=O)[C@H](Cc1c[nH]c2ccccc12)NC(=O)[C@H](CCCNC(=N)N)NC(=O)[C@@H](N)CCCCN)C(N)=O [HHC36, reference compound] (H-KRWWKWWRR-NH2; N-terminus assumed)",activity vs. biofilms,[2]; statement referring to Table 2,completely inactive
RVLIRVARRVIW (RVLIRVARRVIW-NH2) [HE9],Notes (IDR immunomodulatory activity),[1],Weaker activity than 1018
NC[C@H]1O[C@H](O[C@H]2[C@H](O)[C@@H](O[C@H]3O[C@H](CO)[C@@H](O)[C@H](N)[C@H]3O)[C@H](N)C[C@@H]2N)[C@H](N)C[C@@H]1O [Tobramycin],FIC,[3]; [9],0.375 and 0.38
same,FIC,[3]; [10],0.5625 and 0.56
same,MBIC,[3],6.4 µg/mL
same,concentration of antibiotic at FIC,[3]; [11],1.6 µg/mL
same,concentration of antibiotic at FIC,[3]; [12],0.4 µg/mL
same,Fold decrease in antibiotic concentration,[3],4X
same,Fold decrease in antibiotic concentration / antibiotic MIC,[3],16X
same,FIC,[4]; [9],0.52 and 0.5
same,FIC,[4]; [10],1
same,MBIC,[4],>102.4 µg/mL
same,concentration of antibiotic at FIC,[4]; [11],1.6 µg/mL
same,concentration of antibiotic at FIC,[4]; [12],1.6 µg/mL
same,Fold decrease in antibiotic concentration,[4],64X
same,Fold decrease in antibiotic concentration / antibiotic MIC,[4],64X
same,FIC,[5]; [9],0.502 and 0.5
same,FIC,[5]; [10],0.51 and 0.5
same,Concentration of antibiotic at the FIC,[5]; [11],1.6 µg/mL
same,Concentration of antibiotic at the FIC,[5]; [12],1.6 µg/mL
same,FIC,[6]; [9],0.38
same,FIC,[6]; [10],0.56
same,Fold decrease in antibiotic MIC in the presence of peptide,[6],16X
same,FIC,[7]; [9],0.31
same,FIC,[7]; [10],0.75
same,Fold decrease in antibiotic MIC in the presence of peptide,[7],4X
same,FIC,[8]; [9],0.75
same,FIC,[8]; [10],1.03
same,Fold decrease in antibiotic MIC in the presence of peptide,[8],32X
CC[C@H](C)[C@H](NC(=O)[C@H](Cc1c[nH]c2ccccc12)NC(=O)[C@H](CCCNC(=N)N)NC(=O)[C@@H](N)CCCNC(=N)N)C(=O)N[C@@H](CCCNC(=N)N)C(=O)N[C@H](C(=O)N[C@@H](C)C(=O)N[C@H](C(=O)N[C@H](C(=O)N[C@@H](CC(C)C)C(=O)N[C@@H](CCCNC(=N)N)C(=O)N[C@H](C(N)=O)C(C)C)[C@@H](C)CC)C(C)C)C(C)C [HE1],MCP-1 induction,"[1]; 24 hours of stimulation, lowest peptide concentration 20 μg/ml",clearly superior to peptide 1018
VRRIWRR (VRRIWRR-NH2) [EH1],Notes (IDR immunomodulatory activity),[1],Weaker activity than 1018
CC[C@H](C)[C@H](NC(=O)[C@H](CCCNC(=N)N)NC(=O)[C@H](C)NC(=O)[C@H](CC(C)C)NC(=O)[C@@H](N)CCCNC(=N)N)C(=O)N[C@H](C(=O)N[C@H](C(=O)N[C@H](C(=O)N[C@@H](CCCNC(=N)N)C(=O)N[C@H](C(=O)N[C@@H](CCCNC(=N)N)C(=O)N[C@@H](CCCNC(=N)N)C(N)=O)C(C)C)[C@@H](C)CC)C(C)C)C(C)C [Peptide E3] (H-RLARIVVIRVRR-NH2; N-terminus assumed),% Biofilm Inhibition Pa,"[2]; Pa) biofilm, 10 μg/ml",47%
C[C@@H](O)[C@H]1C(=O)N2C(C(=O)O)=C(SCCN=CN)C[C@H]12 [Imipenem],FIC,[3]; [9],0.75
same,FIC,[3]; [10],1
same,MBIC,[3],6.4 µg/mL
same,concentration of antibiotic at FIC,[3]; [11],1.6 µg/mL
same,concentration of antibiotic at FIC,[3]; [12],0.1 µg/mL
same,Fold decrease in antibiotic concentration,[3],4X
same,Fold decrease in antibiotic concentration / antibiotic MIC,[3],64X
same,FIC,[4]; [9],0.25
same,FIC,[4]; [10],0.52
same,MBIC,[4],>102.4 µg/mL
same,concentration of antibiotic at FIC,[4]; [11],25.6 µg/mL
same,concentration of antibiotic at FIC,[4]; [12],3.2 µg/mL
same,Fold decrease in antibiotic concentration,[4],4X
same,Fold decrease in antibiotic concentration / antibiotic MIC,[4],32X
same,FIC,[5]; [9],0.502 and 0.5
same,FIC,[5]; [10],0.51 and 0.5
same,Concentration of antibiotic at the FIC,[5]; [11],0.8 µg/mL
same,Concentration of antibiotic at the FIC,[5]; [12],0.8 µg/mL
same,FIC,[6]; [9],0.53
same,FIC,[6]; [10],0.75
same,Fold decrease in antibiotic MIC in the presence of peptide,[6],2X
same,FIC,[7]; [9],0.53
same,FIC,[7]; [10],1
same,Fold decrease in antibiotic MIC in the presence of peptide,[7],64X
same,FIC,[8]; [9],1
same,FIC,[8]; [10],1
same,Fold decrease in antibiotic MIC in the presence of peptide,[8],2X
CC[C@H](C)[C@H](NC(=O)[C@H](C)N)C(=O)N[C@@H](CCCNC(=N)N)C(=O)N[C@H](C(=O)N[C@H](C(=O)N[C@@H](CCCNC(=N)N)C(=O)N[C@@H](C)C(=O)N[C@@H](CCCNC(=N)N)C(=O)N[C@@H](CC(C)C)C(=O)N[C@H](C(=O)N[C@@H](CCCNC(=N)N)C(=O)N[C@@H](CCCNC(=N)N)C(N)=O)C(C)C)C(C)C)C(C)C [Peptide 1009] (H-AIRVVRARLVRR-NH2; N-terminus assumed),% Biofilm Inhibition Pa,"[2]; Pa) biofilm, 10 μg/ml",54%
VRLIRVWRVIRK (VRLIRVWRVIRK-NH2) [HE7],Notes (IDR immunomodulatory activity),[1],No secretion of MCP-1
CC[C@H](C)[C@H](NC(=O)[C@H](CCCNC(=N)N)NC(=O)[C@H](C)NC(=O)[C@@H](NC(=O)[C@H](CCCNC(=N)N)NC(=O)[C@H](C)NC(=O)[C@H](Cc1c[nH]c2ccccc12)NC(=O)[C@H](CCCNC(=N)N)NC(=O)[C@@H](N)C(C)C)C(C)C)C(=O)N[C@@H](CC(C)C)C(=O)N[C@@H](CCCNC(=N)N)C(=O)N[C@H](C(N)=O)C(C)C [HE3] (H-VRWARVARILRV-NH2; N-terminus assumed),Notes (IDR immunomodulatory activity),[1],Weaker activity than 1018
